In the assay the test system is convulsion induced by picrotoxine in mice. Kind of assay: Protection against picrotoxine-induced convulsion (suppression of the tonic extension phase). Format: in vivo, male Swiss mice. The note with it: for responders at 50 mg/kg / responders at 100 mg/kg / ED50: Mus musculus; for responders at 50 mg/kg: 0.5 h, read-out: i.p.: % prot. (percentage of protected animals), 50 mg/kg i.p., picrotoxine 24 mg/kg i.p. 30 min later; for responders at 100 mg/kg: 1 h, read-out: p.o.: % prot. (percentage of protected animals), 100 mg/kg p.o., picrotoxine 24 mg/kg i.p. 60 min later; for i.p.: % prot. (percentage of protected animals): 50 mg/kg i.p., picrotoxine 24 mg/kg i.p. 30 min later. The text has this: The psychotropic properties of the compounds have been determined by the protection of the induced convulsion by picrotoxine for mice, which is achieved by the method derived from that of Krall et al., "Epilepsia", 1978, 19, p. 409-428.
The administration of picrotoxine caused a convulsive crisis in the animal characterised by a myoclonic extension syndrome followed by the extension of the limbs causing the animal to die. Certain substances, particularly those active on the complex GABA/benzodiazepines/Cl-ionophore makes it possible to protect the animals from this convulsive crisis.
In practice the study is carried out on batches of 10 male "Swiss" mice weighing approximately 20 g, which are administered with the product to be studied in aqueous solution either by intraperitoneal route (i.p.) at the rate of 50 mg/kg and in a volume of 0.2 ml of solution per animal, or by oral route (p.o) in a volume of 2.0 ml of solution per animal.
An injection of a solution of picrotoxine at the rate of 24 mg/kg in a volume of 0.2 ml per animal is then administered by interperitoneal route, either 30 minutes after administering the product by interperitoneal route or 60 minutes after administering the product by oral route. The dose of the product injected causing a clonic crisis, which results in untreated animals dying. The suppression of the extension tonic phase in the animals treated under the conditions of the test is observed. The results are expressed:
either in percentages of protected animals of this phase to the reaction of 50 mg/kg of the compound of the study administered by i.p. route or 100 mg/kg by p.o route,
or in DE50 for each of these routes, which is the efficient dosage of the test compound expressed in mg/kg protecting 50% of the animals of this extension phase. The significant value of the results being generally indicated in the following manner:
* Significant result at p<0.05
** Significant result at p<0.01
*** Significant highly significant at p<0.001.

Setting [1] is: ip, * p<0.05, ** p<0.01, *** p<0.001.
[2] abbreviates: po, * p<0.05, ** p<0.01, *** p<0.001.
Setting [3] is: * p<0.05, ** p<0.01, *** p<0.001.

Where a name gives a salt, the structure may show the parent alone. Read-outs that look alike come from different tables or passages of the source.

In the case of `CCC(C[C@@H]1C[C@H]1c1ccccc1)(c1cc(OC)c(OC)c(OC)c1)N(C)C` (relative stereo) [Example 54, trans N,N-dimethyl-a-ethyl-a-(2-phenyl-1-cyclopropylmethyl)-3,4,5-trimethoxybenzylamine], under setting [1], the responders at 50 mg/kg came out at 70%. Consider `CCC(C[C@@H]1C[C@H]1c1ccccc1)(c1ccccn1)N(C)C` (relative stereo) [Example 58, trans N,N-dimethyl-a-ethyl-a-(2-phenyl-1-cyclopropylmethyl)-(2-pyridyl)methanamine], for which the responders at 50 mg/kg under setting [1] was 70%. In addition, under setting [2], the responders at 100 mg/kg was 80%. For `CCC(C[C@@H]1C[C@H]1c1ccccc1)(c1ccco1)N(C)C` (relative stereo) [Example 60, trans N,N-dimethyl-a-ethyl-a-(2-phenyl-1-cyclopropylmethyl)-2-furfurylamine], under setting [1], the responders at 50 mg/kg was 80%. For the same molecule, the responders at 100 mg/kg under setting [2] turned out to be 60%. Take `CCC(C[C@@H]1C[C@H]1c1ccccc1)(c1cccs1)N(C)C` (relative stereo) [Example 63, trans N,N-dimethyl-a-ethyl-a-(2-phenyl-1-cyclopropylmethyl)-2-thienylmethylmaine]: the responders at 50 mg/kg under setting [1] is 60%. Also, the responders at 100 mg/kg under setting [2] was determined as 50%.

Regarding `CCC(C[C@@H]1C[C@H]1c1ccccc1)(c1ccsc1)N(C)C` (relative stereo) [Example 68, trans N,N-dimethyl-a-ethyl-a-(2-phenyl-1-cyclopropylmethyl)-3-trienylmethylamine], under setting [1], the responders at 50 mg/kg stood at 100%.

Consider `CCC(N)(CC=Cc1ccccc1)c1ccccc1` (single isomer, unassigned) [Example 16A, (-) tartrate of (+) a-cinnamyl-a-ethyl-benzylamine], for which the responders at 50 mg/kg under setting [1] is 90%. For the same molecule, under setting [2], the responders at 100 mg/kg came out at 100%. Consider `CCC(N)(CC=Cc1ccccc1)c1ccccc1` (single isomer, unassigned) [Example 16B, (+) tartrate of (-)a-cinnamyl-a-ethyl benzylamine], for which the “i.p.: % prot. (percentage of protected animals)” value under setting [3] is 100%. Moreover, for the setting “100 mg/kg p.o., picrotoxine 24 mg/kg i.p. 60 min later, * p<0.05, ** p<0.01, *** p<0.001”, the “p.o.: % prot. (percentage of protected animals)” value stood at 100%. As for `CCC(N)(CC=Cc1ccccc1)c1ccc(Cl)cc1` (single isomer, unassigned; (+)) [Example 17A, (+) a-cinnamyl-a-ethyl-p.chlorobenzylamine], the responders at 50 mg/kg under setting [1] turned out to be 80%. In addition, under setting [2], the responders at 100 mg/kg turned out to be 50%.

Take `CCC(CC=Cc1ccccc1)(NC)c1ccccc1` (single isomer, unassigned; (+)) [Example 29, (+) a-cinnamyl-a-ethyl-N-methyl benzylamine]: the “i.p.: % prot. (percentage of protected animals)” value under setting [3] was 100%.

Consider `CCC(CC=Cc1ccccc1)(c1ccccc1)N(C)C` (single isomer, unassigned; (+)) [Example 50, (+) a-cinnamyl-N,N-dimethyl-a-ethyl-benzylamine], for which the “i.p.: % prot. (percentage of protected animals)” value under setting [3] is recorded as 100%.

As for `CCC(CC=Cc1ccccc1)(NC)c1ccccc1` (single isomer, unassigned; (-)) [Example 28, (-) a-cinnamyl-a-ethyl-N-methyl benzylamine], under setting [1], the responders at 50 mg/kg is 100%. For the same molecule, the responders at 100 mg/kg under setting [2] came out at 100%. For the molecule `CCC(CC=Cc1ccccc1)(c1ccccc1)N(C)C` (single isomer, unassigned; (-)) [Example 49, (-)a-cinnamyl-N,N-dimethyl-a-ethylbenzylamine], the responders at 50 mg/kg under setting [1] was determined as 100%. The responders at 100 mg/kg under setting [2] is 100%. As for `CCC(N)(CC=Cc1ccccc1)c1ccccc1` (stereo not drawn) [Example 3, a-cinnamyl-a-ethyl-benzylamine], the responders at 50 mg/kg under setting [1] came to 80%. Besides, the responders at 100 mg/kg under setting [2] was 100%. Consider `CCC(N)(CC=Cc1ccccc1)c1ccc(Cl)cc1` (stereo not drawn) [Example 4, a-cinnamyl-a-ethyl-p.chlorobenzylamine], for which, under setting [1], the responders at 50 mg/kg worked out at 60%. On the same count and under the same terms, the same measure for `CCC(N)(CC=Cc1ccccc1)c1ccc(Cl)c(Cl)c1` (stereo not drawn) [Example 5, a-cinnamyl-a-ethyl-3,4 dichlorobenzylamine]: 50%. Consider `CCC(N)(CC=Cc1ccccc1)c1ccc(C)cc1` (stereo not drawn) [Example 6, a-cinnamyl-a-ethyl-p.methylbenzylamine], for which the responders at 50 mg/kg under setting [1] came to 70%. In addition, the responders at 100 mg/kg under setting [2] came out at 70%. For the molecule `CCC(N)(CC=Cc1ccccc1)c1cccc(C(F)(F)F)c1` (stereo not drawn) [Example 7, a-cinnamyl-a-ethyl-(m.trifluoromethyl)benzylamine], the responders at 50 mg/kg under setting [1] is 100%.

`CCC(N)(CC=Cc1ccccc1)c1ccc(OC)cc1` (stereo not drawn) [Example 8, a-cinnamyl-a-ethyl-p.metoxybenzylamine]: the responders at 50 mg/kg under setting [1] turned out to be 80%. The same measure, in the same setting: the same measure for `CC(N)(CC=Cc1ccc(Cl)c(Cl)c1)c1ccccc1` (stereo not drawn) [Example 9, a-(3',4'-dichloro) cinnamyl-a-methylbenzylamine]: 100%; for `CCC(N)(CC=Cc1ccc(Cl)c(Cl)c1)c1ccccc1` (stereo not drawn) [Example 10, a-(3',4'-dichloro) cinnamyl-a-ethyl-benzylamine]: 90%. As to `CC(C)C(N)(CC=Cc1ccc(Cl)c(Cl)c1)c1ccccc1` (stereo not drawn) [Example 11, a-(3',4'-dichloro)cinnamyl-a-isopropylbenzylamine], the responders at 50 mg/kg under setting [1] stood at 70%. Besides, the responders at 100 mg/kg under setting [2] turned out to be 100%. For `CCC(N)(CC=Cc1ccc(Cl)c(Cl)c1)c1ccc(C)cc1` (stereo not drawn) [Example 12, a-(3',4'-dichloro)cinnamyl-a-ethyl-p.methylbenzylamine], the ED50 (ip, read-out: i.p.: DE50) turned out to be 37.3 mg/kg and the ED50 (po, read-out: p.o.: DE50) is 50 mg/kg. On to `CCC(N)(CC=Cc1ccc(Cl)c(Cl)c1)c1ccc(OC)cc1` (stereo not drawn) [Example 13], for which the ED50 (ip, read-out: i.p.: DE50) amounted to 23.2 mg/kg. Moreover, the responders at 100 mg/kg under setting [2] was 50%. `CCC(N)(CC=Cc1ccc(Cl)c(Cl)c1)c1cccc(C(F)(F)F)c1` (stereo not drawn) [Example 15, a-(3',4'-dichloro)cinnamyl-a-ethyl-m.trifluoromethylbenzylamin]: the ED50 (ip, read-out: i.p.: DE50) is over 25 mg/kg.

Take `CCC(CC=Cc1ccccc1)(NC)c1ccccc1` (stereo not drawn) [Example 18, a-cinnamyl-a-ether-N-methyl-benzylamine]: the responders at 50 mg/kg under setting [1] amounted to 80%. Under setting [2], the responders at 100 mg/kg came to 100%.

With `CCC(CC=Cc1ccccc1)(NC)c1ccc(Cl)c(Cl)c1` (stereo not drawn) [Example 20, a-cinnamyl-a-ethyl-N-methyl-3,4-dichlorobenzylamine], the responders at 100 mg/kg under setting [2] stood at 80%.

As to `CCC(CC=Cc1ccccc1)(NC)c1cccc(C(F)(F)F)c1` (stereo not drawn) [Example 21, a-cinnamyl-a-ethyl-N-methyl-(m.trifluoromethyl)benzylamine], the responders at 50 mg/kg under setting [1] was 90%. In addition, under setting [2], the responders at 100 mg/kg came to 70%. In the same order, the values of `CCC(CC=Cc1ccccc1)(NC)c1ccc(OC)cc1` (stereo not drawn) [Example 22, a-cinnamyl-a-ethyl-N-methyl-p.methoxybenzylamine] are 80% and 100%.

Turning to `CCC(CC=Cc1ccccc1)(c1ccccc1)N(C)C` (stereo not drawn) [Example 30, a-cinnamyl-N,N-dimethyl-a-ethyl-benzylamine], the responders at 50 mg/kg under setting [1] amounted to 100%. In addition, the responders at 100 mg/kg under setting [2] was found to be 100%. In the case of `CCC(CC=Cc1ccccc1)(c1ccc(Cl)c(Cl)c1)N(C)C` (stereo not drawn) [Example 32, a-cinnamyl-N,N-dimethyl-a-ethyl-(3,4-dichloro)benzylamine], the responders at 50 mg/kg under setting [1] was 50%. Moreover, under setting [2], the responders at 100 mg/kg came out at 60%.
